Read-outs that look alike come from different tables or passages of the source.
How the values were obtained:
Assay type in all cases: cell-based
KRAS G12D-cRAF = biological target: T1, KRAS G12D-cRAF (Homo sapiens, UniProt P01116, G12D); experiment: Cellular KRAS G12D-cRAF Binding Inhibition Assay (NanoBRET, AD293 stable cells); details: 3 h incubation
T1 construct: expressed in transfected cells
Procedure: (§1) NanoLuc® luciferase was used as the energy donor, and NanoBRET™ 618 fluorescent ligand labeled with the HaloTag® protein was used as the energy acceptor to detect protein-protein interactions in living cells. AD293 stable cells transfected with KRAS G12D-NanoLuc® luciferase and cRAF RBD-HaloTag® tag protein were seeded in 96-well plates at a cell density of 1×10^4 cells/well. Except for wells with medium added as a blank control, NanoBRET™ 618 fluorescent ligand was added to all other wells, and the plates were cultured overnight in a cell culture incubator. […] The luminescence data were calculated and converted into inhibition percent. The inhibition percent of KRAS G12D-cRAF binding was calculated according to the following formula: Inhibition Percent = (MaxValue−MeasuredValue)/(MaxValue−Blank) × 100% [formula] […] Curve fitting was performed using GraphPad Prism software to obtain IC50 values, see Table 1.

[1] = tested on: KRAS-G12V mutant tumor cells SW620; experiment: Cell Proliferation Inhibition Assay (SW620), Cell-titer GLO, 96 h; details: Homo sapiens, SW-620, 96 h, read-out: SW620(G12V)
Procedure: (§2) KRAS-G12V mutant tumor cells SW620 were seeded in low-attachment 96-well plates at a cell density of 1×10^3 cells/well and cultured overnight in a cell culture incubator. After the cells adhered, the test compounds were added to the 96-well plates at final concentrations of 10000, 2000, 400, 80, 16, 3.2, 0.64, 0.13, 0.03, 0 nM (final concentration of DMSO was 0.5% for all). After incubation at 37°C for 96 h, 50 µL of Cell-titer GLO working solution was added to each well, mixed by shaking, incubated at room temperature for 10 min, and the Luminescence value was read on a multi-function microplate reader. The luminescence data were calculated and converted into inhibition percent. The inhibition percent of cell proliferation was calculated according to the following formula: Inhibition Percent = (MaxValue−MeasuredValue)/(MaxValue−Blank) × 100% [formula]
("Max Value" comes from the 0.5% DMSO control well, "Blank" comes from the blank control well, and "Measured Value" comes from the compound-treated well).
Curve fitting was performed using GraphPad Prism software to obtain IC50 values, see Table 1.

[2] = tested on: KRAS-G12D mutant tumor cells AGS; experiment: Cell Proliferation Inhibition Assay (AGS), Cell-titer GLO, 96 h; details: Homo sapiens, AGS, 96 h, read-out: AGS(G12D)
Procedure: as §2, with “KRAS-G12D” for “KRAS-G12V”, “AGS” for “SW620”, “After the cells adhered, the test compounds were added to the 96-well plates at final concentrations of 10000, 2000, 400, 80, 16, 3.2, 0.64, 0.13, 0.03, 0 nM (final concentration of DMSO was 0.5% for all).” left out, “[formula] […] Curve fitting was performed using GraphPad Prism software to obtain IC50 values, see Table 1.” for “[formula]”

KRAS G12V-cRAF = biological target: T2, KRAS G12V-cRAF (Homo sapiens, UniProt P01116, G12V); experiment: Cellular KRAS G12V-cRAF Binding Inhibition Assay (NanoBRET, AD293 stable cells); details: 3 h incubation
T2 construct: expressed in transfected cells
Procedure: as §1, with “AD293 stable cells transfected with KRAS G12D-NanoLuc® luciferase and cRAF RBD-HaloTag® tag protein were seeded in 96-well plates at a cell density of 1×10^4 cells/well.” left out, “G12V-cRAF” for “G12D-cRAF”

[3] = SW620 cells, 96 h incubation, Cell-titer GLO
[4] = AGS cells, 96 h incubation, Cell-titer GLO

T2 sequence (P01116 1-188 isoform P01116-2 G12V): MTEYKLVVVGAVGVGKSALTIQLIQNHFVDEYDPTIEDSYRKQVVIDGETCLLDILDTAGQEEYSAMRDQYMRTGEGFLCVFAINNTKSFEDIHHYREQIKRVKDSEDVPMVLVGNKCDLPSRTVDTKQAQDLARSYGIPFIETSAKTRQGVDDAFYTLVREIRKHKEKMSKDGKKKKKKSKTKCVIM
T1 sequence (P01116 1-188 isoform P01116-2 G12D): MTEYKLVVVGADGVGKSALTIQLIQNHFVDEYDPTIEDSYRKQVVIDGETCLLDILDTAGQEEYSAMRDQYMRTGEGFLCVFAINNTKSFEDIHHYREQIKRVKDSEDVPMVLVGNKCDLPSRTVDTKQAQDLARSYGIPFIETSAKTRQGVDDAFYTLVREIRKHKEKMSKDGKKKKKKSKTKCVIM

Row | Structure (SMILES) | IC50 (KRAS G12D-cRAF; read-out: NanoBRET KRAS G12D) | IC50 [1, 3] | IC50 [2, 4] | IC50 (KRAS G12V-cRAF; read-out: NanoBRET KRAS G12V) | IC50 (KRAS G12D-cRAF; NanoBRET KRAS G12D) | IC50 [1] | IC50 [2] | IC50 (KRAS G12V-cRAF; NanoBRET KRAS G12V)
1 | C[C@@H]1OCCCn2c(c3c4cc(ccc42)-c2csc(n2)C[C@H](NC(=O)[C@H]2C[C@@H]2C)C(=O)N2CCC[C@H](N2)C(=O)OCC(C)(C)C3)-c2cc(N3CCN(C)CC3)cnc21 [Example 1, (1S,2S)-2-methyl-N-((1^5S,6^3S,4S,Z)-1^5,10,10-trimethyl-1^2-(4-methylpiperazin-1-yl)-5,7-dioxo-1 ^8,1^9,6^1,6^2,6^3,6^4,6^5,6^6-octahydro-1^5H,1^7-oxa-1(13,15)-pyrido[3',2':7,8][1,5]oxazonino[5,6-a]indola-2(4,2)-thiazola-6(1,3)-pyridazinacycloundecaphane-4-yl)cyclopropane-1-carboxamide] |  |  |  |  | 6.1 nM | 0.54 nM | 7.86 nM | 29.9 nM
2 | C[C@H]1C[C@@H]1C(=O)N[C@H]1Cc2nc(cs2)-c2ccc3c(c2)c(c2n3CCCOCc3ncc(N4CCN(C)CC4)cc3-2)CC(C)(C)COC(=O)[C@@H]2CCCN(N2)C1=O [Example 2, (1S,2S)-N-((6^3S,4S,Z)-10,10-dimethyl-1^2-(4-methylpiperazin-1-yl)-5,7-dioxo-1^8,1^9,6^1,6^2,6^3,6^4,6^5 ,6^6-octahydro-1^5H,1^7H-8-oxa-1(13,15)-pyrido[3',2':7,8][1,5]oxazonino[5,6-a]indola-2(4,2)-thiazola-6(1,3)-pyridazinacycloundecaphane-4-yl)-2-methylcyclopropane-1-carboxamide] |  |  |  |  | 29.1 nM | 1.56 nM | 8.7 nM | 206 nM
3 | C[C@H]1C[C@@H]1C(=O)N[C@H]1Cc2nc(cs2)-c2ccc3c(c2)c(c2n3[C@@H](C)CCOCc3ncc(N4CCN(C)CC4)cc3-2)CC(C)(C)COC(=O)[C@@H]2CCCN(N2)C1=O [Example 4, (1S,2S)-2-methyl-N-((1^9S,6^3S,4S,Z)-1^9,10,10-trimethyl-1^2-(4-methylpiperazin-1-yl)-5,7-dioxo-1 ^8,1^9,6^1,6^2,6^3,6^4,6^5,6^6-octahydro-1^5H,1^7H-8-oxa-1(13,15)-pyrido[3',2':7,8][1,5]oxazonino[5,6-a]indola-2(4,2)-thiazola-6(1,3)-pyridazinacycloundecaphane-4-yl)cyclopropane-1-carboxamide] |  |  |  |  | 155 nM | 6.2 nM | 51.9 nM | 651 nM
4 | C[C@@H]1OCC[C@H](C)n2c(c3c4cc(ccc42)-c2csc(n2)C[C@H](NC(=O)[C@H]2C[C@@H]2C)C(=O)N2CCC[C@H](N2)C(=O)OCC(C)(C)C3)-c2cc(N3CCN(C)CC3)cnc21 [Example 5, (1S,2S)-2-methyl-N-((1^5S,1^9S,6^3S,4S,Z)-1^5,1^9,10,10-tetramethyl-1^2-(4-methylpiperazin-1-yl)-5,7-dioxo-1^8,1^9,6^1,6^2,6^3,6^4,6^5,6^6-octahydro-1^5H,1^7H-8-oxa-1(13,15)-pyrido[3',2':7,8][1,5]oxazonino[5,6-a]indola-2(4,2)-thiazola-6(1,3)-pyridazinacycloundecaphane-4-yl)cyclopropane-1-carboxamide] |  |  |  |  | 25.9 nM | 1.08 nM | 6.92 nM | 78.8 nM
5 | CCN1CCN(c2cnc3c(c2)-c2c4c5cc(ccc5n2C[C@@H](OC)CO[C@H]3C)-c2csc(n2)C[C@H](NC(=O)[C@H]2C[C@@H]2C)C(=O)N2CCC[C@H](N2)C(=O)OCC(C)(C)C4)CC1 [Example 203, (1S,2S)-N-((1^5S,1^8R,6^3S,4S,Z)-1^2-(4-ethylpiperazin-1-yl)-1^8-methoxy-1^5,10,10-trimethyl-5,7-dioxo-1^8,1^9,6^1,6^26^3,6^4,6^5,6^6-octahydro-1^5H,1^7H-8-oxa-1(13,15)-pyrido[3',2':7,8][1,5]oxazonino[5,6-a]indola-2(4,2)-thiazola-6(1,3)-pyridazinacycloundecaphane-4-yl)-2-methylcyclopropane-1-carb oxamide] |  | 3.3 nM | 2.1 nM |  |  |  |  | 

Now from value to compound, other results behind:

Row | IC50 (KRAS G12D-cRAF; read-out: NanoBRET KRAS G12D) | IC50 [1, 3] | IC50 [2, 4] | IC50 (KRAS G12V-cRAF; read-out: NanoBRET KRAS G12V) | Structure (SMILES) | IC50 (KRAS G12D-cRAF; NanoBRET KRAS G12D) | IC50 [1] | IC50 [2] | IC50 (KRAS G12V-cRAF; NanoBRET KRAS G12V)
6 | 3.95 nM | 1.46 nM | 2.19 nM | 15.1 nM | CCN1CCN(c2cnc3c(c2)-c2c4c5cc(ccc5n2CCCOC3C)-c2csc(n2)CC(NC(=O)C2CC2C)C(=O)N2CCCC(N2)C(=O)OCC(C)(C)C4)CC1 [Example 21, (1S,2S)-N-((1^5S,6^3S,4S,Z)-12-(4-ethylpiperazin-1-yl)-1^5,10,10-trimethyl-5,7-dioxo-1^8,1^9,6^1,6^2,6^3 ,6^4,6^5,6^6-octahydro-1^5H,1^7H-8-oxa-1(13,15)-pyrido[3',2':7,8][1,5]oxazonino[5,6-a]indola-2(4,2)-thiazola-6(1,3)-pyridazinacycloundecaphane-4-yl)-2-methylcyclopropane-1-carboxamide] |  |  |  | 
7 | 6.6 nM | 1.03 nM | 2.62 nM | 22.9 nM | COCCN1CCN(c2cnc3c(c2)-c2c4c5cc(ccc5n2CCCOC3C)-c2csc(n2)CC(NC(=O)C2CC2C)C(=O)N2CCCC(N2)C(=O)OCC(C)(C)C4)CC1 [Example 22, (1S,2S)-N-((1^5S,6^3S,4S,Z)-1^2-(4-(2-methoxyethyl)piperazin-1-yl)-1^5,10,10-trimethyl-5,7-dioxo-1 ^8,1^9,6^1,6^2,6^3,6^4,6^5,6^6-octahydro-1^5H,1^7H-8-oxa-1(13,15)-pyrido[3',2':7,8][1,5]oxazonino[5,6-a]indola-2(4,2)-thiazola-6(1,3)-pyridazinacycloundecaphane-4-yl)-2-methylcyclopropane-1-carboxamide] |  |  |  | 
8 | 5.32 nM | 1.02 nM | 4.28 nM | 22.4 nM | CCN1CCN(c2cnc3c(c2)-c2c4c5cc(ccc5n2CCCOC3C)-c2csc(n2)CC(NC(=O)C23CC(C)(C2)C3)C(=O)N2CCCC(N2)C(=O)OCC(C)(C)C4)CC1 [Example 37, N-((1^5S,6^3S,4S,Z)-1^2-(4-ethylpiperazin-1-yl)-1^5,10,10-trimethyl-5,7-dioxo-1^8,1^9,6^1,6^2,6^3,6^4,6^56^6-octahydro-1^5H,1^7H-8-oxa-1(13,15)-pyrido[3',2':7,8][1,5]oxazonino[5,6-a]indola-2(4,2)-thiazola-6(1,3)-pyridazinacycloundecaphane-4-yl)-3-methylbicyclo[1.1.1]pentane-1-carboxamide] |  |  |  | 
9 |  | 4.1 nM | 39 nM |  | CC1OCCCn2c(c3c4cc(ccc42)-c2csc(n2)CC(NC(=O)C2COC2)C(=O)N2NC(C(=O)OCC(C)(C)C3)C3CC2C3)-c2cc(N3CCN(C)CC3)cnc21 [Example 199, N-((1^5S,6^4S,4S,Z)-1^5,10,10-trimethyl-1^2-(4-methylpiperazin-1-yl)-5,7-dioxo-1^8,1^9-dihydro-1^5H, 1 ^7H-8-oxa-6^2,6^3-diaza-1(13,15)-pyrido[3',2':7,8][1,5]oxazonino[5,6-a]indola-2(4,2)-thiazola-6(2,4)-bicyclo[3.1.1]heptanacycloundecaphane-4-yl)oxetane-3-carboxamide] |  |  |  | 
10 |  | 0.2 nM | 0.4 nM |  | CC(C)[C@@H](C(=O)N[C@H]1Cc2nc(cs2)-c2ccc3c(c2)c(c2n3CCCO[C@@H](C)c3ncc(N4CCN(C)CC4)cc3-2)CC(C)(C)COC(=O)[C@H]2NN(C1=O)C1CC2C1)N(C)C(=O)N(C)C [Example 204, (2S)-3-methyl-N-((1^5S,6^4S,4S,Z)-1^5,10,10-trimethyl-1^2-(4-methylpiperazin-1-yl)-5,7-dioxo-1^8,1^9-dihydro-1^5H,1^7H-8-oxa-6^2,6^3-diaza-1(13,15)-pyrido[3',2':7,8][1,5]oxazonino[5,6-a]indola-2(4,2) -thiazola-6(2,4)-bicyclo[3.1.1]heptanacycloundecaphane-4-yl)-2-(1,3,3-trimethylureido)butanamide] |  |  |  | 

From patent publication EP4800018A1, “PAN-KRAS INHIBITOR AND USE THEREOF IN MEDICINES” (Betta Pharmaceuticals Co., Ltd., priority 2023, dated 2025)
